Consider 6 compounds from patent publication US8927015B2, “Formulations for delivering insulin” (Emisphere Technologies, Inc., priority 2006, dated 2015).

Data set [1] is described as follows: Solubility of insulin in aqueous solutions containing a delivery agent. The protocol:
The solubility of insulin was investigated in aqueous solutions containing varying amounts of the delivery agent compound sodium 4-CNAB. The aqueous solution containing delivery agent was adjusted to pH 1 by the addition of 1N HCl and excess insulin was added to the acidified solution. Thereafter, the pH of the solution was increased by the addition of increments of 1N NaOH. Vials containing the suspensions were left without shaking or sonicating for 1-2 hours. The supernatant was analyzed for insulin and sodium 4-CNAB using an HPLC method and the pH was recorded. […] All of these experiments were performed at room temperature.

The nature of data set [2]: Dissolution of insulin pellet (USP Dissolution Type II paddle). The format is physicochemical. The protocol:
A 300 mg pellet of insulin was prepared in a die. The surface area of the pellet available to the dissolution medium was 0.484 cm^2. The pellet was compressed at 1200-1400 lbs on a Carver press to form discs. The die was then attached to the shaft of a dissolution apparatus (USP Dissolution Type II (Paddle) made by Vankel). The die was rotated at 100 rpm and then immersed in 500 mL of degassed dissolution medium maintained at 37° C. Dissolution experiments were conducted in water and in aqueous solutions containing sodium 4-CNAB. Samples of the solutions were taken over two hours and analyzed by HPLC. FIGS. 3 and 4 show dissolution profiles of insulin in deionized (DI) water and in 10 mg/mL sodium 4-CNAB solution, respectively.

The conditions of data set [3]: for Solubility: pH 6.8.
Method: Excess insulin was added to buffer solutions at pH values of 1, 2, 3, 4, 5, 6, 6.8, and 7.4. Vials containing the solutions were shaken in a constant temperature water bath, and visually observed at regular time intervals. Samples were taken at 2 hours, 4 hours, and 24 hours and analyzed by a stability-indicating HPLC method.

Take `OCCN(CCO)CCCCCCCCOc1ccccc1O` [HPOD, 8-(2-hydroxyphenoxy)octyldiethanolamine]: the Insulin in data set [1] (delivery agent 250 mg/mL, pH 3.9, room temperature) is given as above 50 mg/mL.
For `O=C(O)CCCCCCCNC(=O)c1ccccc1O` [SNAC, N-(8-[2-hydroxybenzoyl]-amino) caprylic acid], in data set [1] (delivery agent 150 mg/mL, pH 7.9, room temperature), the Insulin is reported as above 200 mg/mL.
As to `O=C(O)CCCNC(=O)c1ccc(Cl)cc1O` [Treatment 4-CNAB, 4-[(2-hydroxy-4-chlorobenzoyl)amino]butanoate], the Insulin is 0.5 mg/mL in data set [1] (delivery agent 5 mg/mL, pH of delivery agent solution 6.4, room temperature); 1 mg/mL in data set [1] (delivery agent 10 mg/mL, pH 6.45, room temperature); 11 mg/mL in data set [1] (delivery agent 50 mg/mL, pH 6.26, room temperature); 44 mg/mL in data set [1] (delivery agent 50 mg/mL, pH 6.49, room temperature); above 110 mg/mL in data set [1] (delivery agent 100 mg/mL, pH 6.45, room temperature); 86 mg/mL in data set [1] (delivery agent 100 mg/mL, pH 6.71, room temperature). Also, the Insulin is given as 187 mg/mL in data set [1] (delivery agent 150 mg/mL, pH 6.83, room temperature) and above 135 mg/mL in data set [1] (delivery agent 200 mg/mL, pH 6.79, room temperature).
Regarding “Insulin: insulin (recombinant human insulin) whose solubility and dissolution were tested”, the Insulin in data set [1] (None (DI water), pH 6.3, room temperature) stood at 1.14 mg/mL. For the same compound, the “rate of insulin dissolution” value in data set [2] (10 mg/mL sodium 4-CNAB dissolution media versus deionized water, 37° C., 100 rpm) is “significantly greater”. Further, the “insulin levels in dissolution media” value in data set [2] (50 mg/ml sodium 4-CNAB dissolution media, HPLC) is “below the detection limits”.
As for “insulin type #1: recombinant human zinc insulin obtained from Diosynth France”, the “dissolution rate, visual observation” value in data set [3] (not observed at pH 1, 2, and 7.4 where dissolution was very rapid for both) is “dissolved faster than insulin type #2”. In data set [3], the Solubility result is “greater than 4 mg/mL”.
In data set [3], “insulin type #2: recombinant human zinc insulin obtained from Eli Lilly Co.” yielded a Solubility above 2 mg/mL.
